# Data taken from patent publication US9890138B2, “Diaminopyrimidine derivatives and processes for the preparation thereof” (YUHAN CORPORATION, priority 2011, dated 2018).
# Target: T1, human 5-HT4(a) (Homo sapiens, UniProt Q13639)
# T1 construct: host or cells: GeneBlAzer HTR4-CRE-bla CHO-K1 cells
# Assay: Evaluation of agonistic activity in CHO-K1 cells expressing human 5-HT4(a) (GeneBlAzer HTR4-CRE-bla CHO-K1, beta-lactamase reporter)
# Type: cell-based
# Conditions: CHO-K1 cells stably expressing human 5-HT4(a)
# How it was run: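 GeneBlAzer HTR4-CRE-bla CHO-K1 cells, 10^4/well overnight, exposed 5 h to compounds at 8 concentrations in medium with 1% DMSO in the added solution. β-lactamase substrate 2 h in dark; 410 nm excitation, 465/535 nm emission ratio; EC50 by non-linear regression.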
# T1 sequence (Q13639 1-387 isoform Q13639-2): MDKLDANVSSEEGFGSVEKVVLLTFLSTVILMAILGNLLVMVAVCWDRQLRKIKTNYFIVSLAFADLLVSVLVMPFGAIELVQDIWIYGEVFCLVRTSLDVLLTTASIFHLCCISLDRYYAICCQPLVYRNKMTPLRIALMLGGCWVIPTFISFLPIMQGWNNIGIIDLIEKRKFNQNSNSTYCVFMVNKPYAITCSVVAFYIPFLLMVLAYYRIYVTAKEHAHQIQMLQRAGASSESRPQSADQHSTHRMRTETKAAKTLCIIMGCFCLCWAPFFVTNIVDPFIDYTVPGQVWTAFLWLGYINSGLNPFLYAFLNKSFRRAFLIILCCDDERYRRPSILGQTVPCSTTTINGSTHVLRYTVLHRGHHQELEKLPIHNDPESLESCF
row,Structure (SMILES),EC50 [nM]
1,"CCCc1cc(N2CC[C@H](NC(=O)C(C)(C)O)C2)nc(Nc2cccc(C#N)c2)n1 [Example 153, (S)-N-{1-[2-(3-cyanophenylamino)-6-propylpyrimidin-4-yl]pyrrolidin-3-yl}-2-hydroxy-2-methylpropanamide]",0.228
2,"CCCc1cc(N2CC[C@H](NC(=O)CCc3ccc(O)cc3)C2)nc(Nc2cccc(C#N)c2)n1 [Example 155, (S)-N-{1-[2-(3-cyanophenylamino)-6-propylpyrimidin-4-yl]pyrrolidin-3-yl}-3-(4-hydroxyphenyl)propanamide]",0.417
3,"CCCc1cc(N2CC[C@H](NC(=O)CCC(C)=O)C2)nc(Nc2cccc(C#N)c2)n1 [Example 156, (S)-N-{1-[2-(3-cyanophenylamino)-6-propylpyrimidin-4-yl]pyrrolidin-3-yl}-4-oxopentanamide]",0.219
4,"CCCc1cc(N2CC[C@H](NC(=O)CO)C2)nc(Nc2cccc(C#N)c2)n1 [Example 157, (S)-N-{1-[2-(3-cyanophenylamino)-6-propylpyrimidin-4-yl]pyrrolidin-3-yl}-2-hydroxyacetamide]",0.044
5,CCCc1cc(N2CC[C@H](NC(=O)COCc3ccccc3)C2)nc(Nc2cccc(C#N)c2)n1 [Example 158],0.436
6,CCCc1cc(N2CC[C@H](NC(=O)CN(C)C)C2)nc(Nc2cccc(C#N)c2)n1 [Example 160],0.121
7,CCCc1cc(N2CC[C@H](NC(=O)CCN(C)C)C2)nc(Nc2cccc(C#N)c2)n1 [Example 161],0.119
8,CCCc1cc(N2CC[C@H](NC(=O)CCCN(C)C)C2)nc(Nc2cccc(C#N)c2)n1 [Example 162],0.193
9,"CCCc1cc(N2CC[C@H](NC(=O)CNC(=O)OCc3ccccc3)C2)nc(Nc2cccc(C#N)c2)n1 [Example 165, (S)-benzyl 2-{1-[2-(3-cyanophenylamino)-6-propylpyrimidin-4-yl]pyrrolidin-3-ylamino}-2-oxoethylcarbamate]",0.2
10,CCCc1cc(N2CC[C@H](NC(=O)CCCNC(=O)OC(C)(C)C)C2)nc(Nc2cccc(C#N)c2)n1 [Example 166],0.103
11,CCCc1cc(N2CC[C@H](NC)C2)nc(Nc2ccc(C)c(C#N)c2)n1 [Example 170],0.0013
12,CCCc1cc(N2CCC(NCC)C2)nc(Nc2ccc(C)c(C#N)c2)n1 (centres unmarked) [Example 173],0.004
13,CCCc1cc(N2CC[C@H](NC)C2)nc(Nc2ccc(N)c([N+](=O)[O-])c2)n1 [Example 175],0.229
14,CCCc1cc(N2CC[C@H](NCC)C2)nc(Nc2ccc(N)c([N+](=O)[O-])c2)n1 [Example 176],0.018
15,CCCc1cc(N2CC[C@H](NCC)C2)nc(Nc2ccc(N)c([N+](=O)[O-])c2)n1 [Example 177],0.02
16,CCCc1cc(N2CC[C@H](NC)C2)nc(Nc2ccc(F)c(C#N)c2)n1 [Example 180],0.0087
17,CCCc1cc(N2CCC(N)C2)nc(Nc2ccc(F)c(C#N)c2)n1 (centres unmarked) [Example 182],0.036
18,CCCc1cc(N2CCC[C@H]2CO)nc(Nc2ccc3cc[nH]c3c2)n1 [Example 185],0.015
19,CCCc1cc(N2CCC[C@@H]2CO)nc(Nc2ccc3cc[nH]c3c2)n1 [Example 186],0.382
20,CCCc1cc(N2CCCC2CO)nc(Nc2ccc3cc[nH]c3c2)n1 (centres unmarked) [Example 187],0.037
21,CCCc1cc(N2CCC[C@H]2COC)nc(Nc2ccc3cc[nH]c3c2)n1 [Example 189],0.028
22,CCCc1cc(N2CCCC2C)nc(Nc2ccc3cc[nH]c3c2)n1 (centres unmarked) [Example 190],0.05
23,CCCc1cc(N2CCC[C@H]2C(=O)OC)nc(Nc2ccc3cc[nH]c3c2)n1 [Example 191],0.29
24,CCCc1cc(N2CCC(NC(C)=O)C2)nc(Nc2ccc3cc[nH]c3c2)n1 (centres unmarked) [Example 192],0.02
25,"CCCc1cc(N2CCC[C@H]2CO)nc(Nc2cccc(C#N)c2)n1 [Example 194, (S)-3-{4-[2-(hydroxymethyl)pyrrolidin-1-yl]-6-propylpyrimidin-2-ylamino}benzonitrile]",0.2
26,CCCc1cc(N2CCC[C@H]2CO)nc(Nc2cccc(SC)c2)n1 [Example 195],0.25
